The values that follow come from the NIST ThermoML archive (doi:10.1021/acs.jced.7b00836).

For this series the following is noted: Liquid, Closed cell (Static) method.

± gives the expanded uncertainty stated by the source.

In general, vapor or sublimation pressure refers to the equilibrium pressure above the liquid or solid. For the compound `CCCCCC` [hexane], the “vapor or sublimation pressure” value came to 17 ± 4 kPa (288.24 K) and 21 ± 4 kPa (296.23 K).

Consider `CCCCC` [pentane], for which the “vapor or sublimation pressure” value runs as follows: (288.25 K) 48 ± 4 kPa; (296.24 K) 66 ± 4 kPa.
